System: 883617-216-R-J1-PDC tumor spheroids, viability
Experiment: Anticancer human tumor 883617-216-R-J1-PDC patient-derived bladder carcinoma cell line growth inhibition [PI3K]
Settings: spheroids with HUVEC and MSC; for viability, T/C: stronger effect = lower value
In short: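 Complex 3D spheroids (cancer cells + endothelial HUVEC + mesenchymal stem cells); drug pairs of targeted agent x inavolisib/alpelisib/duvelisib/copanlisib; half-log series from ~Cmax, max 10 microM if Cmax unknown; endpoint viability.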

[1] = curve of first compound, second compound 0.0316 µM
[2] = curve of first compound, second compound 0.1 µM
[3] = curve of first compound, second compound 0.316 µM
[4] = curve of first compound, second compound 1 µM
[5] = curve of first compound, second compound 3.16 µM
[6] = curve of first compound, second compound 10 µM
[7] = second compound 0.0316 µM, first compound 0.0316 µM
[8] = second compound 0.0316 µM, first compound 0.1 µM
[9] = second compound 0.0316 µM, first compound 0.316 µM
[10] = second compound 0.0316 µM, first compound 1 µM
[11] = second compound 0.0316 µM, first compound 3.16 µM
[12] = second compound 0.0316 µM, first compound 10 µM
[13] = second compound 0.1 µM, first compound 0.0316 µM
[14] = second compound 0.1 µM, first compound 0.1 µM
[15] = second compound 0.1 µM, first compound 0.316 µM
[16] = second compound 0.1 µM, first compound 1 µM
[17] = second compound 0.1 µM, first compound 3.16 µM
[18] = second compound 0.1 µM, first compound 10 µM
[19] = second compound 0.316 µM, first compound 0.0316 µM
[20] = second compound 0.316 µM, first compound 0.1 µM
[21] = second compound 0.316 µM, first compound 0.316 µM
[22] = second compound 0.316 µM, first compound 1 µM
[23] = second compound 0.316 µM, first compound 3.16 µM
[24] = second compound 0.316 µM, first compound 10 µM
[25] = second compound 1 µM, first compound 0.0316 µM
[26] = second compound 1 µM, first compound 0.1 µM
[27] = second compound 1 µM, first compound 0.316 µM
[28] = second compound 1 µM, first compound 1 µM
[29] = second compound 1 µM, first compound 3.16 µM
[30] = second compound 1 µM, first compound 10 µM
[31] = second compound 3.16 µM, first compound 0.0316 µM
[32] = second compound 3.16 µM, first compound 0.1 µM
[33] = second compound 3.16 µM, first compound 0.316 µM
[34] = second compound 3.16 µM, first compound 1 µM
[35] = second compound 3.16 µM, first compound 3.16 µM
[36] = second compound 3.16 µM, first compound 10 µM
[37] = second compound 10 µM, first compound 0.0316 µM
[38] = second compound 10 µM, first compound 0.1 µM
[39] = second compound 10 µM, first compound 0.316 µM
[40] = second compound 10 µM, first compound 1 µM
[41] = second compound 10 µM, first compound 3.16 µM
[42] = second compound 10 µM, first compound 10 µM
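Further: spheroids exposed to agents for 7 days before the viability read.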

## CC(C)NCC(C(=O)N1CCN(c2ncnc3c2C(C)CC3O)CC1)c1ccc(Cl)cc1 (stereo not given) + Cc1nc(NC(=O)N2CCCC2C(N)=O)sc1-c1ccnc(C(C)(C)C(F)(F)F)c1
[1]
  IC50: 403 nM
[2]
  IC50: 213 nM
[3]
  IC50: < 31.6 nM
[4]
  IC50: < 31.6 nM
[5]
  IC50: < 31.6 nM
[6]
  IC50: < 31.6 nM
[7]
  viability, T/C: 77%
[8]
  viability, T/C: 67.7%
[9]
  viability, T/C: 57.6%
[10]
  viability, T/C: 27.9%
[11]
  viability, T/C: 13.8%
[12]
  viability, T/C: 8.01%
[13]
  viability, T/C: 72.8%
[14]
  viability, T/C: 60.1%
[15]
  viability, T/C: 45.5%
[16]
  viability, T/C: 26.7%
[17]
  viability, T/C: 16.2%
[18]
  viability, T/C: 6.45%
[19]
  viability, T/C: 37.7%
[20]
  viability, T/C: 41%
[21]
  viability, T/C: 36.6%
[22]
  viability, T/C: 22.6%
[23]
  viability, T/C: 10.9%
[24]
  viability, T/C: 4.92%
[25]
  viability, T/C: 30.4%
[26]
  viability, T/C: 29.9%
[27]
  viability, T/C: 24.4%
[28]
  viability, T/C: 15.2%
[29]
  viability, T/C: 8.01%
[30]
  viability, T/C: 4.96%
[31]
  viability, T/C: 17.9%
[32]
  viability, T/C: 10.5%
[33]
  viability, T/C: 10.3%
[34]
  viability, T/C: 9.2%
[35]
  viability, T/C: 8.98%
[36]
  viability, T/C: 3.73%
[37]
  viability, T/C: 7.03%
[38]
  viability, T/C: 5.88%
[39]
  viability, T/C: 5.22%
[40]
  viability, T/C: 5.21%
[41]
  viability, T/C: 3.1%
[42]
  viability, T/C: 2.33%

## Cn1nccc1Nc1nccc(-c2ccn(C(CO)c3ccc(Cl)c(F)c3)c(=O)c2)n1 (stereo not given) + CC(Nc1ncnc2nc[nH]c12)c1cc2cccc(Cl)c2c(=O)n1-c1ccccc1
[1]
  IC50: 7980 nM
[2]
  IC50: 5280 nM
[3]
  IC50: 7480 nM
[4]
  IC50: 4180 nM
[5]
  IC50: 764 nM
[6]
  IC50: < 31.6 nM
[7]
  viability, T/C: 100%
[8]
  viability, T/C: 90.3%
[9]
  viability, T/C: 72.5%
[10]
  viability, T/C: 67.4%
[11]
  viability, T/C: 66.5%
[12]
  viability, T/C: 43.5%
[13]
  viability, T/C: 87.3%
[14]
  viability, T/C: 86.8%
[15]
  viability, T/C: 70.1%
[16]
  viability, T/C: 62.6%
[17]
  viability, T/C: 65.3%
[18]
  viability, T/C: 38.6%
[19]
  viability, T/C: 88.4%
[20]
  viability, T/C: 71.2%
[21]
  viability, T/C: 71.2%
[22]
  viability, T/C: 66.8%
[23]
  viability, T/C: 64%
[24]
  viability, T/C: 44%
[25]
  viability, T/C: 77.9%
[26]
  viability, T/C: 74.6%
[27]
  viability, T/C: 64.5%
[28]
  viability, T/C: 61%
[29]
  viability, T/C: 52%
[30]
  viability, T/C: 43.6%
[31]
  viability, T/C: 63.7%
[32]
  viability, T/C: 69.5%
[33]
  viability, T/C: 50%
[34]
  viability, T/C: 50.3%
[35]
  viability, T/C: 37.2%
[36]
  viability, T/C: 24.9%
[37]
  viability, T/C: 46.7%
[38]
  viability, T/C: 40.9%
[39]
  viability, T/C: 35.7%
[40]
  viability, T/C: 31.4%
[41]
  viability, T/C: 29.5%
[42]
  viability, T/C: 22.2%

## CCCS(=O)(=O)Nc1ccc(F)c(C(=O)c2c[nH]c3ncc(-c4ccc(Cl)cc4)cc23)c1F
Compound 0.0316 µM
  viability, T/C: 99.5% [middle of 4 runs]
Compound 0.1 µM
  viability, T/C: 98.2% [middle of 4 runs]
Compound 0.316 µM
  viability, T/C: 97% [middle of 4 runs]
Compound 3.16 µM
  viability, T/C: 73.8% [middle of 4 runs]
Compound 10 µM
  viability, T/C: 9.39% [middle of 4 runs]
Curve of compound
  IC50: 4.76 µM [middle of 4 runs]

— PubChem BioAssay AID1963973 (Molecular Pharmacology Branch, DTP, NCI, 2024)
